Data set [1] can be described thus: UV-vis absorption spectrum in acetone. It is filed as physicochemical. As for the experimental part: Referring now to FIG. 1B, there is shown a synthetic pathway to Reactive Diluent 1, 2, and 3. […] Reactive diluents of the invention are non-white coloured.
The spectra 2a and 2b of Reactive Diluent 3 were recorded in spectroscopy grade acetone, diluted from 1M stock solutions down to 10 μM using serial dilutions. Absorption behaviour was examined from 200 nm to 800 nm, at 1 nm increments, using a ThermoFisher 350 UV-vis spectrophotometer (ThermoFisher Scientific, UK). Absorption maxima at 365, 405, 455, and 500 nm were recorded for comparison.
(§1) Referring also to FIG. 3, there is shown a series of graphs illustrating the absorption behaviour of the resin components in spectroscopy grade acetone, diluted from 1 M stock solutions down to 10 μM using serial dilutions. Absorption behaviour was examined from 200 nm to 800 nm, at 1 nm increments, with absorption maxima quantified at 365, 405, 455, and 500 nm, as indicated in the box in each graph.

Data set [2] can be described thus: Concentration at which Reactive Diluent 3 acts as a photoinhibitor (absorption vs concentration, inflection point). It counts as physicochemical. As for the experimental part: as §1
This was used to determine the concentration at which Reactive Diluent 3 would act as a photoinhibitor for wavelengths of interest. At 365 nm, the inflection point of the logarithmic plot of the linear fit was located at ca 0.015M; 405 nm inflection point was located at 0.0131M; 450 nm inflection point was found at 0.099M; 500 nm inflection point was located at 0.1312M.

Results on three molecules are retold here after US20240101749A1, “RESIN COMPOSITION” (4D MEDICINE LIMITED, priority 2021, published 2024).

On to `C=CCOC(=O)NCC1(C)CC(NC(=O)OCC=C)CC(C)(C)C1` (centres unmarked) [Reactive Diluent 1], for which the “absorption maximum (λmax)” value in data set [1] is “do not exhibit an absorption maximum (λmax) of between 350 and 520 nm”.

Consider `C=CCNC(=O)NCC1(C)CC(NC(=O)NCC=C)CC(C)(C)C1` (centres unmarked) [Reactive Diluent 2], for which the “absorption maximum (λmax)” value in data set [1] is “do not exhibit an absorption maximum (λmax) of between 350 and 520 nm”.

With `C=CCN1C(=O)CC(=O)N(CC2(C)CC(N3C(=O)CC(=O)N(CC=C)C3=O)CC(C)(C)C2)C1=O` (centres unmarked) [Reactive Diluent 3], the “absorption maximum (λmax)” value in data set [1] is reported as “ca. 450 nm”. For the same molecule, the “concentration needed in a resin composition to function as a photoinhibitor” value in data set [2] was “at least 0.015 M”. In data set [2] (365 nm, acetone), the “inflection point of the logarithmic plot of the linear fit” value is reported as approximately 0.015 M. In addition, the inflection point came to 0.0131 M in data set [2] (405 nm, acetone); 0.099 M in data set [2] (450 nm, acetone); 0.1312 M in data set [2] (500 nm, acetone).
